Experimental findings from PubChem BioAssay AID449764 (Southern Research Specialized Biocontainment Screening …, 2010) are described below.

This test deals with Mycobacterium tuberculosis H37Rv growth inhibition, no glycerol. Nature of the test: Mycobacterium tuberculosis H37Rv growth inhibition, no glycerol, confirmatory dose response (AID 449764).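 For all read-outs here: growth read after 7 days of incubation.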 To be noted: for IC90: measured here: IC90 growth inhibition.

Consider `FC(F)(F)c1ccc(Nc2nnnc3ccccc23)cc1`, for which the IC50 (commonly the concentration at which inhibition is half-maximal) was 48.8 µM and the IC90 (in general, the concentration needed for an effect of 90%) turned out to be 55.3 µM.
In the same order, the values of `CCOc1ccc(-c2cc(C(=O)NCCCn3ccnc3)c3cc(Br)ccc3n2)cc1` are 24.9 µM and 27.6 µM.
In the same order, the values of `O=C(CCc1ccc(Oc2cc([N+](=O)[O-])cc([N+](=O)[O-])c2)cc1)N1CCCCCC1` are 14.9 µM and 22.9 µM.
As to `Cc1ccc(/C=C/C(=O)N2CC(C)CC(C)C2)o1` (configuration not stated), the IC50 was 36.3 µM and the IC90 worked out at 49.4 µM.
In the same order, the values of `Cc1ccc(-c2noc(C3CCCN(C(=O)c4ccc(C(C)(C)C)cc4)C3)n2)o1` (configuration not stated) are 53.9 µM and 82.6 µM.
With `CC(C)OC(=O)/C(C#N)=C/c1ccc(-c2ccc(SC(F)F)cc2)o1`, the IC50 is 5.19 µM and the IC90 was found to be 8.24 µM.
Consider `CC(=O)c1c(N2CCCC2)[nH]c(-c2ccccc2)nc1=S`, for which the 50% inhibitory concentration (IC50) is 81.4 µM and the IC90 is above 100 µM.
`Nc1cc([N+](=O)[O-])cc2oc(-c3ccccc3)cc12` yielded an IC90 above 100 µM.
In the case of `CCCOc1ccc(C(=O)NC(=S)NCc2cccnc2)cc1`, the IC50 is 35.1 µM and the IC90 came out at 45.7 µM.
The like results for `Cc1ccc(OC(=O)CCN2C(=O)c3ccccc3C2=O)cc1C` were, in that order, 85.1 µM and above 100 µM.
The like results for `C#CCn1c(=NC(=O)c2cc(Cl)sc2Cl)sc2cc(S(N)(=O)=O)ccc21` were, in that order, 12 µM and 34.1 µM.
The like results for `O=c1cc(CCl)nc(Cc2c(Cl)cccc2Cl)[nH]1` were, in that order, 10.5 µM and above 100 µM.
As to `N#Cc1ccc(CN2CCN(CC(=O)NCCc3ccc(Cl)cc3Cl)CC2)cc1`, the IC50 was 44.9 µM and the IC90 worked out at 51.2 µM.
In the same order, the values of `N#CC1=C(c2ccccc2)/C(=C/c2ccccc2)OC1=O` are 11.6 µM and 23.2 µM.
In the same order, the values of `CCCCCOc1ccc(NC2=CC(=O)CCC2)cc1` are 77.8 µM and 99 µM.
In the same order, the values of `CCNC(=S)NN=C1c2ccccc2-c2ccccc21` are 11 µM and above 25 µM.
Turning to `C=CCC1(CC=C)CCCN1C(=O)c1cc(COc2ccc(-n3cncn3)cc2)on1`, the IC50 is 47.3 µM and the IC90 came out at 57.4 µM.
In the case of `O=C(CSc1nnc(-c2cccs2)o1)NCC1CN(Cc2ccccc2)CCO1` (configuration not stated), the IC50 is 20.7 µM and the IC90 amounted to 25.5 µM.
As for `Cc1nc2sccn2c(=O)c1CCN1CCC(=C(c2ccccc2)c2ccc(F)cc2)CC1`, the IC50 is 35.8 µM and the IC90 came out at 51.2 µM.
Take `CC(C)(C)c1nn(-c2ccccc2)c2[nH]c(=O)c(CNCc3ccc4c(c3)OCO4)cc12`: the IC50 was 20.8 µM and the IC90 came out at 34.4 µM.
With `Cc1ccc(CN2CC(C(=O)OCc3ccccc3Cl)CC2=O)cc1` (configuration not stated), the IC50 is 11.1 µM and the IC90 stood at 29.6 µM.
Regarding `Nc1[nH]n2c(=O)cc(-c3ccccc3)nc2c1N=Nc1ccc2c(c1)OCO2`, the IC50 is 33.2 µM and the IC90 is 50.2 µM.
Take `Cc1ccc(NC(=O)COC(=O)C(NS(=O)(=O)c2ccc(Cl)cc2)C(C)O)cc1C` (configuration not stated): the IC50 is 16.1 µM and the IC90 amounted to 36.2 µM.
The like results for `O=C(CCl)Nc1sccc1C(=O)c1ccccc1` were, in that order, 0.45 µM and 12.6 µM.
As for `Cc1ccn2c(-c3csc(NCc4ccccc4)n3)c(C)nc2c1`, the half-inhibitory concentration (IC50) was 45.5 µM and the IC90 turned out to be 51.5 µM.
In the same order, the values of `Cc1ccc(OC(=O)c2oc3ccc(F)cc3c2C)c(C)c1` are 12 µM and 13.9 µM.
With `Cn1cnc(Sc2ncnc3nc[nH]c23)c1[N+](=O)[O-]`, the IC50 was 12.1 µM and the IC90 amounted to 21.1 µM.
The like results for `COc1ccc(/C=N/Nc2nncn2N)cc1Br` were, in that order, 10.5 µM and 13 µM.
In the case of `CCOC(=O)CSc1snnc1-c1ccccc1`, the IC50 is 29.4 µM and the IC90 is above 100 µM.
Consider `CCCn1c(CC)nc([N+](=O)[O-])c1S(=O)(=O)c1ccccc1`, for which the IC50 is 18.2 µM and the IC90 came to 23.6 µM.
In the same order, the values of `C=C1c2c(Cl)ccc(O)c2C(O)=C2C(=O)[C@]3(O)C(O)=C(C(N)=O)C(=O)[C@@H](N(C)C)[C@@H]3[C@@H](O)C12` (some centres not stated) are 4.52 µM and 7.01 µM.
The like results for `CCN1C(=NCCc2ccc(Br)cc2)N[C@@H](c2ccccc2)[C@H](C(=O)OC)[C@H]1C` were, in that order, 22.4 µM and 25.8 µM.
In the case of `CN(Cc1ccco1)c1ncnc2ccc(-c3ccc4c(ccn4C)c3)cc12`, the IC50 was 40.9 µM and the IC90 was 59.4 µM.
In turn, `N#Cc1cccc2c1-c1ccccc1/C2=N/NC(N)=O` displayed a concentration for an effect of 90% (IC90) above 100 µM.
With `O=C(/C=C/c1ncc(C(F)(F)F)cc1Cl)OCc1ccccc1`, the IC50 is 90.5 µM and the IC90 is above 100 µM.
The like results for `Cc1ccc2c(c1)c1c3n2CCN=C3CCC1` were, in that order, 10.5 µM and 16 µM.
The like results for `COc1ccc(OCC(=O)Nc2c(C(=O)N(CCN(C)C)Cc3ccco3)oc3ccccc23)cc1` were, in that order, 41.8 µM and 45.9 µM.
`O=c1c2ccccc2nc(/C=C/c2ccccc2)n1-c1ccc(O)cc1`: the IC90 is above 50 µM.
With `Cc1ccc(C(=O)ONc2ccc(N=O)cc2)cc1`, the IC50 was 57.3 µM and the IC90 was above 100 µM.
As to `CSc1ccc(NC(=O)Nc2cccn(Cc3ccccc3)c2=O)cc1`, the IC90 was above 100 µM.
For the compound `Cc1cc2c(N=O)c(NO)ccc2[nH]1`, the 50% inhibitory concentration (IC50) is 11.9 µM and the IC90 came to 18.2 µM.
The like results for `O=[N+]([O-])c1cc([N+](=O)[O-])c2cc3ccccc3nc2c1` were, in that order, below 0.2 µM and 0.64 µM.
For `COc1ccccc1N(C)S(=O)(=O)c1ccc(C(=O)Nc2ccc3nc(C)sc3c2)cc1`, the IC50 was 51.1 µM and the IC90 came to 99.8 µM.
In the same order, the values of `Cc1ccc(S(=O)(=O)Nc2cccc3ncccc23)s1` are 3.38 µM and 6.54 µM.
Regarding `CC(=O)c1ccc(N2CCC(c3cc(-c4ccc(Cl)cc4Cl)n[nH]3)CC2)c([N+](=O)[O-])c1`, the IC50 is 24.3 µM and the IC90 was above 100 µM.
In the same order, the values of `COc1cc2c(cc1OC)CN(CCC(=O)c1ccc(Br)cc1)CC2` are 23.4 µM and 26.7 µM.
In the same order, the values of `O=C(Nc1ccc(Cl)cc1)N1CCN(c2ccc3nnc(-c4ccc(F)cc4)n3n2)CC1` are 18.9 µM and 51.8 µM.
With `CCOC(=O)N1CCN(c2nc(N(c3ccccc3)c3ccccc3)nc(-n3ccnc3)n2)CC1`, the IC50 is 98.2 µM and the IC90 is above 100 µM.
On to `CCOC(=O)C1=C(C)NC(SCC(=O)Nc2nc(C)cs2)=C(C#N)C1c1cccs1` (configuration not stated), for which the half-maximal inhibitory concentration (IC50) was 31.3 µM and the IC90 came to 49.8 µM.
For `Nc1nc2ccccc2n1CCOc1ccccc1Cl`, the IC50 was 20.3 µM and the IC90 came out at 23.1 µM.
Turning to `COc1cc2c(cc1NC(=O)CN1C(=O)NC3(CCc4ccccc43)C1=O)oc1ccccc12` (configuration not stated), the IC50 is 19.9 µM and the IC90 was above 100 µM.
For the compound `O=C1C(=O)N(c2ccccc2)c2ccccc21`, the IC50 was 17.8 µM and the IC90 is 34 µM.
On to `Cc1ccc(C(=O)N/N=C(/CC(=O)c2cccs2)C(F)(F)F)cc1`, for which the IC50 is 2.25 µM and the IC90 amounted to 3.18 µM.
